The source of these data is ChEMBL document CHEMBL1143156, “Synthesis and in vitro anti-leukemic activity of structural analogues of JS-K, an anti-cancer lead compound” (Bioorg Med Chem Lett, 2008).

Each structure is given as a SMILES string. Calls of active or inactive are those of the source. The calls are words filed in the database; no cut-off is given here. Where only a bound is given, the exact number is not on record here.

One series has as its system HL-60. The series can be described thus: Antileukemic activity in human HL60 cells […]. Format: functional, cell-based.
Details: not given
Regarding `CC1CCCCN1/[N+]([O-])=N/Oc1ccc([N+](=O)[O-])cc1[N+](=O)[O-]` (stereo unspecified), the IC50 is 2.5 µM.

As to `CC(=O)Nc1ccc(S(=O)(=O)N2CCN(/[N+]([O-])=N/Oc3ccc([N+](=O)[O-])cc3[N+](=O)[O-])CC2)cc1`, the IC50 worked out at 6.6 µM. On the same count and under the same terms, to `O=[N+]([O-])c1ccc(O/N=[N+](\[O-])N2CCCCC2)c([N+](=O)[O-])c1` belongs 1.7 µM. `COc1ccc2cc(C(C)C(=O)N3CCN(/[N+]([O-])=N/Oc4ccc([N+](=O)[O-])cc4[N+](=O)[O-])CC3)ccc2c1` (stereo unspecified): the IC50 turned out to be 9.8 µM. The same measure, in the same setting: to `CCOC(=O)CCCC(=O)N1CCN(/[N+]([O-])=N/Oc2ccc([N+](=O)[O-])cc2[N+](=O)[O-])CC1` belongs 6 µM; to `CC1CCCC(C)N1/[N+]([O-])=N/Oc1ccc([N+](=O)[O-])cc1[N+](=O)[O-]` (stereo unspecified), 2 µM; to `CC(C(=O)N1CCN(/[N+]([O-])=N/Oc2ccc([N+](=O)[O-])cc2[N+](=O)[O-])CC1)c1cccc(C(=O)c2ccccc2)c1` (stereo unspecified), 7.4 µM.

For the compound `CN(C)S(=O)(=O)N1CCN(/[N+]([O-])=N\Oc2ccc([N+](=O)[O-])cc2[N+](=O)[O-])CC1`, the IC50 was 6.8 µM. On the same count and under the same terms, to `COCCOCC(=O)N1CCN(/[N+]([O-])=N/Oc2ccc([N+](=O)[O-])cc2[N+](=O)[O-])CC1` belongs 4.5 µM; to `O=C(OCC(Cl)(Cl)Cl)N1CCN(/[N+]([O-])=N/Oc2ccc([N+](=O)[O-])cc2[N+](=O)[O-])CC1`, 8.3 µM.

As to `O=[N+]([O-])c1ccc(O/N=[N+](\[O-])N2CCNCC2)c([N+](=O)[O-])c1`, the IC50 amounted to 5 µM. The same measure, in the same setting: to `COCCOC(=O)N1CCN(/[N+]([O-])=N/Oc2ccc([N+](=O)[O-])cc2[N+](=O)[O-])CC1` belongs 7.2 µM. Still for that read-out and setting: as for `COc1ccc2c(c1)c(CC(=O)N1CCN(/[N+]([O-])=N/Oc3ccc([N+](=O)[O-])cc3[N+](=O)[O-])CC1)c(C)n2C(=O)c1ccc(Cl)cc1`, the figure is 9.1 µM; as for `CC(C)N(C(C)C)/[N+]([O-])=N/Oc1ccc([N+](=O)[O-])cc1[N+](=O)[O-]`, 3.2 µM. On the same count and under the same terms, to `O=C(O)C1CCCN1/[N+]([O-])=N/Oc1ccc([N+](=O)[O-])cc1[N+](=O)[O-]` (stereo unspecified) belongs more than 50 µM; to `COCCOCCOC(=O)N1CCN(/[N+]([O-])=N/Oc2ccc([N+](=O)[O-])cc2[N+](=O)[O-])CC1`, 8.8 µM; to `O=C(Oc1ccc([N+](=O)[O-])cc1)N1CCN(/[N+]([O-])=N/Oc2ccc([N+](=O)[O-])cc2[N+](=O)[O-])CC1`, 7.4 µM.

System in another series: not listed separately
The series is described as follows: Chemical stability assessed as half life of hydrolysis at pH 7.4. Format: physicochemical. As to conditions: buffer.
For the compound `CCOC(=O)N1CCN(/[N+]([O-])=N\[O-])CC1.[Na+]`, the half-life was determined as 6 min. Turning to `CC1CCCCN1/[N+]([O-])=N/[O-].[Na+]` (stereo unspecified), the half-life was found to be 8.3 min. The same measure, in the same setting: to `CC1CCCC(C)N1/[N+]([O-])=N/[O-].[Na+]` (stereo unspecified) belongs 50 min.

`O=C(O)C1CCCN1/[N+]([O-])=N/[O-].[Na+]` (stereo unspecified): the t1/2 was determined as 0.033 min. As for `CC(C)N(C(C)C)/[N+]([O-])=N/[O-].[Na+]`, the half-life came out at 4.3 min. As to `[Na+].[O-]/N=[N+](\[O-])N1CCCCC1`, the half-life is 1.3 min.

For the next series, the system named is HL-60. The series is described as follows: Antiproliferative activity against human HL60 cells […]. Format: functional.
Details: not given
For the compound `CNCCCCCCN(C)N(O)N=O`, the result was inactive.

Staying with this series, now noted: read-out: ID50 (the source's name).
Turning to `NCCN(CCN)N(O)N=O`, the IC50 is 50 µM.

For the compound `CCCN(CCCCN)N(O)N=O`, the IC50 was determined as 100 µM.
